Here are results for 9 molecules from ChEMBL document CHEMBL5113515, “The Discovery of GSK3640254, a Next-Generation Inhibitor of HIV-1 Maturation” (J Med Chem, 2022).

A short description of series [1]: AUC in rat at 5 mg/kg, po. The class given is ADME, organism-based. Also noted: dose 5 mg/kg, route po. The note with it: in vivo, read-out: AUC.
For series [2], the system named is MT2. As to the kind of experiment: Cytotoxicity in human MT2 cells assessed as reduction in cell viability. The class given is functional.
Series [3] concerns Human immunodeficiency virus 1. As to the kind of experiment: Antiviral activity against HIV1 harbouring T332S/V362I/prR41G mutant infected in human MT2 cells measured after 4 to 5 days by dual-luciferase reporter assay. Format: functional, organism-based. The note with it: Human immunodeficiency virus 1, MT2.
Series [4] relates to Human immunodeficiency virus 1. As to the kind of experiment: Antiviral activity against HIV1 wild type NL (4 to 3) infected in human MT2 cells measured after 4 to 5 days in presence of human serum by dual-luciferase reporter assay. Format: functional, organism-based. The note with it: Human immunodeficiency virus 1, MT2. (A reporter such as luciferase makes a cellular process visible.)

In series [5] the test system is Human immunodeficiency virus 1. As to the kind of experiment: Antiviral activity against HIV1 harbouring deltaV370/T371A mutant infected in human MT2 cells measured after 4 to 5 days by dual-luciferase reporter assay. Format: functional, organism-based. Particulars: Human immunodeficiency virus 1, MT2.
For series [6], the system named is Human immunodeficiency virus 1. As to the kind of experiment: Antiviral activity against HIV1 wild type NL (4 to 3) infected in human MT2 cells measured after 4 to 5 days by dual-luciferase reporter assay. Format: functional, organism-based. Particulars: Human immunodeficiency virus 1, MT2.
The subject of series [7] is Human immunodeficiency virus 1. As to the kind of experiment: Antiviral activity against HIV1 harbouring V362I/V370A mutant infected in human MT2 cells measured after 4 to 5 days by dual-luciferase reporter assay. The class given is functional, organism-based. Particulars: Human immunodeficiency virus 1, MT2.
Series [8] in a line: Cmax in overnight fasted cynomolgus monkey at 2 mg/kg, po or 1 mg/kg, iv. Format: ADME, organism-based, Macaca fascicularis. Set-up: dose 2 mg/kg, route po. Particulars: in vivo.
The subject of series [9] is Human immunodeficiency virus 1. As to the kind of experiment: Antiviral activity against HIV1 wild type subtype B NL (4 to 3) harbouring V362/Q369/V370/T371 transfected in human HEK293T cells by dual-luciferase reporter assay. Particulars: Human immunodeficiency virus 1, HEK-293T. The class given is functional, organism-based.
A short description of series [10]: Binding affinity to HIV1 wild type Gag assessed as dissociation constant. Also noted: species or system Human immunodeficiency virus 1.
A short description of series [11]: Volume of distribution at steady state in overnight fasted Sprague-Dawley rat at 5 mg/kg, po or 1 mg/kg, iv. The class given is ADME, organism-based. Particulars: in vivo.
Series [12] is described as follows: Oral bioavailability in overnight fasted cynomolgus monkey using spray-dried dispersion at 2 mg/kg. Particulars: in vivo. The class given is ADME, organism-based, Macaca fascicularis.
For series [13], the system named is Human immunodeficiency virus 1. As to the kind of experiment: Antiviral activity against HIV1 NL (4 to 3) harbouring V362I/deltaV370 mutant transfected in human HEK293T cells by dual-luciferase reporter assay. Format: functional, organism-based. The note with it: Human immunodeficiency virus 1, HEK-293T.
Series [14] in a line: Volume of distribution at steady state in overnight fasted cynomolgus monkey at 2 mg/kg, po or 1 mg/kg, iv. Format: ADME, organism-based, Macaca fascicularis. The note with it: in vivo.
Series [15] is described as follows: Oral bioavailability in overnight fasted Beagle dog using spray-dried dispersion at 2 mg/kg. Format: ADME, organism-based, Canis lupus familiaris. Particulars: in vivo.
Series [16] in a line: Volume of distribution at steady state in overnight fasted Beagle dog at 2 mg/kg, po or 1 mg/kg, iv. Format: ADME, organism-based, Canis lupus familiaris. Particulars: in vivo.
Series [17] relates to Human immunodeficiency virus 1. As to the kind of experiment: Antiviral activity against HIV1 wild type subtype C NL (4 to 3) transfected in human HEK293T cells by dual-luciferase reporter assay. The class given is functional, organism-based. Particulars: Human immunodeficiency virus 1, HEK-293T.
Series [18] relates to Human immunodeficiency virus 1. As to the kind of experiment: Binding affinity to HIV1 wild type Gag assessed as dissociation constant by measuring half life.
The nature of series [19]: AUC(0 to t) in overnight fasted Sprague-Dawley rat at 5 mg/kg, po or 1 mg/kg, iv. Format: ADME, organism-based. Also noted: dose 5 mg/kg, route po. Particulars: in vivo.
Series [20] in a line: AUC(0 to t) in overnight fasted Beagle dog at 2 mg/kg, po or 1 mg/kg, iv. Format: ADME, organism-based, Canis lupus familiaris. Set-up: dose 2 mg/kg, route po. The note with it: in vivo.
The nature of series [21]: Half life in overnight fasted Beagle dog at 1 mg/kg, iv. The note with it: in vivo. Format: ADME, organism-based, Canis lupus familiaris.
Series [22] can be described thus: AUC(0 to t) in overnight fasted cynomolgus monkey at 2 mg/kg, po or 1 mg/kg, iv. Format: ADME, organism-based, Macaca fascicularis. Also noted: dose 2 mg/kg, route po. Particulars: in vivo.
The subject of series [23] is Human immunodeficiency virus 1. As to the kind of experiment: Antiviral activity against HIV1 wild type subtype B NL (4 to 3) transfected in human HEK293T cells by dual-luciferase reporter assay. The class given is functional, organism-based. The note with it: Human immunodeficiency virus 1, HEK-293T.
Series [24] has as its system Human immunodeficiency virus 1. As to the kind of experiment: Antiviral activity against HIV1 NL (4 to 3) harbouring V362I mutant transfected in human HEK293T cells by dual-luciferase reporter assay. The class given is functional, organism-based. The note with it: Human immunodeficiency virus 1, HEK-293T.
Series [25] is described as follows: Cmax in overnight fasted Beagle dog at 2 mg/kg, po or 1 mg/kg, iv. Format: ADME, organism-based, Canis lupus familiaris. Set-up: dose 2 mg/kg, route po. Particulars: in vivo.
Series [26] deals with Human immunodeficiency virus 1. As to the kind of experiment: Antiviral activity against HIV in plasma assessed log10 reduction of HIV RNA over 40 mg/kg, po measured after 11 days. The class given is functional. Particulars: time 11 day.
Series [27] in a line: Volume of distribution at steady state in overnight fasted mouse at 5 mg/kg, po or 1 mg/kg, iv. The class given is ADME, organism-based. The note with it: in vivo.
Series [28] concerns Human immunodeficiency virus 1. As to the kind of experiment: Antiviral activity against HIV1 virus harboring NL (4 to 3) harbouring […]/V370A mutant transfected in human HEK293T cells by luciferase reporter assay. The class given is functional, organism-based. The note with it: Human immunodeficiency virus 1, HEK-293T.
The nature of series [29]: AUC(0 to t) in overnight fasted mouse at 5 mg/kg, po or 1 mg/kg, iv. The class given is ADME, organism-based. Set-up: dose 5 mg/kg, route po. The note with it: in vivo.
Series [30] in a line: Solubility of the compound in FaSSIF at pH 6.5. Format: physicochemical.
A short description of series [31]: Aqueous solubility of compound at pH 1 to 8. Format: physicochemical.
The nature of series [32]: Solubility of the compound in FeSSIF at pH 5.0. Format: physicochemical.

A value given as a limit tells only on which side of the number the result lay.

A word on the AUC: it is concentration integrated over time. As a reminder, the CC50 is the concentration giving 50% cytotoxicity. A word on the EC50: it is the concentration at which the effect is half-maximal. As for `C=C(C)[C@@H]1CC[C@]2(NCCN3CCC(S(C)(=O)=O)CC3)CC[C@]3(C)[C@H](CC[C@@H]4[C@@]5(C)CC=C(C6=CCC(CO)(C(=O)O)CC6)C(C)(C)[C@@H]5CC[C@]43C)[C@@H]12` (stereo partly specified), the AUC in [1] worked out at 2.37 µM·h. In addition, in series [2], the CC50 is 9470 nM. The EC50 amounted to 4.6 nM in series [3]; 12.6 nM in series [4]; 1 nM in [5]; 1.1 nM in series [6]; 1.2 nM in [7].

A word on the Cmax: it is the peak of the concentration-time curve. One may read the Kd as the free concentration of one partner at which half of the binding sites on the other are occupied at equilibrium, for simple one-to-one binding. The bioavailability is dose-corrected exposure relative to a reference, in per cent. In general, AUC(0-t) refers to the area under the concentration-time curve up to a stated or last time point. A word on the half-life: it is how long it takes for the measured level to halve. For `C=C(C)[C@@H]1CC[C@]2(NCCN3CCS(=O)(=O)CC3)CC[C@]3(C)[C@H](CC[C@@H]4[C@@]5(C)CC=C(c6ccc(C(=O)O)cc6)C(C)(C)[C@@H]5CC[C@]43C)[C@@H]12` [BMS-955176], the Cmax in series [8] turned out to be 100 nM; in series [25], 600 nM. The EC50 came out at 2.8 nM in series [9]; 1400 nM in [13]; 704 nM in series [3]; 9.1 nM in series [17]; 66 nM in series [23]; 11.1 nM in series [24]. The EC50 in series [4] is 10.2 nM; in [5], 6 nM; in series [6] it was 5 nM; in [28] it was greater than 3000 nM; in [7] it was greater than 3000 nM. The Kd in series [10] was found to be 1.4 nM. Also, the Vdss in series [11] worked out at 1.1 L/kg; in [14], 0.43 L/kg; in [16] it was 0.36 L/kg; in series [27], 0.82 L/kg. Also, the bioavailability in series [12] worked out at 4%. This molecule displayed a F in series [15] of 9%. The CC50 in series [2] was found to be 13000 nM. For the same molecule, the T1/2 in series [18] is 0.717 h. For the same molecule, the values for the AUC(0-t) in series [19], in series [22] and in [29] were 14.2 µM·h, 1 µM·h and 21.6 µM·h, respectively. In series [20], this molecule showed an AUCt of 29.3 µM·h. The molecule further had a half-life in [21] of 31.7 h. In [26], this molecule displayed an Activity greater than 1 log10IU/ml.

Turning to `C=C(C)[C@@H]1CC[C@]2(NCCN3CCC(S(C)(=O)=O)CC3)CC[C@]3(C)[C@H](CC[C@@H]4[C@@]5(C)CC=C(C6=CCC(CCCO)(C(=O)O)CC6)C(C)(C)[C@@H]5CC[C@]43C)[C@@H]12` (stereo partly specified), the AUC in series [1] came to 4.36 µM·h. The CC50 in series [2] came out at 12400 nM. The EC50 came out at 7.9 nM in series [3]; 16 nM in [4]; 2.9 nM in series [5]; 2.6 nM in series [6]; 3.2 nM in series [7].

Turning to `C=C(C)[C@@H]1CC[C@]2(NCCN3CCS(=O)(=O)CC3)CC[C@]3(C)[C@H](CC[C@@H]4[C@@]5(C)CC=C(C6=CCC(CO)(C(=O)O)CC6)C(C)(C)[C@@H]5CC[C@]43C)[C@@H]12` (stereo partly specified), in series [2], the 50% cytotoxic concentration (CC50) was found to be 14200 nM. For the same molecule, the concentration giving a half-maximal response (EC50) was 25.6 nM in series [3]; 5.9 nM in series [4]; 4.6 nM in series [5]; 4 nM in series [6]; 1.9 nM in series [7].

For orientation: solubility means how much of the substance goes into solution per volume. Take `C=C(C)[C@@H]1CC[C@]2(NCCN3CCS(=O)(=O)CC3)CC[C@]3(C)[C@H](CC[C@@H]4[C@@]5(C)CC=C(C6=CC[C@@](CF)(C(=O)O)CC6)C(C)(C)[C@@H]5CC[C@]43C)[C@@H]12.Cl.Cl`: the solubility in [30] was 310 µg/mL; in series [31], less than 1 µg/mL; in series [32], 800 µg/mL.

Regarding `C=C(C)[C@@H]1CC[C@]2(NCCN3CCS(=O)(=O)CC3)CC[C@]3(C)[C@H](CC[C@@H]4[C@@]5(C)CC=C(C6=CC[C@@](CF)(C(=O)O)CC6)C(C)(C)[C@@H]5CC[C@]43C)[C@@H]12`, the T1/2 in series [18] is 5.73 h.

Take `C=C(C)[C@@H]1CC[C@]2(NCCN3CCC(S(C)(=O)=O)CC3)CC[C@]3(C)[C@H](CC[C@@H]4[C@@]5(C)CC=C(C6=CCC(C(=O)O)(C(F)F)CC6)C(C)(C)[C@@H]5CC[C@]43C)[C@@H]12` (stereo partly specified): the area under the curve (AUC) in series [1] is 17.9 µM·h. Besides, the CC50 in series [2] was found to be 11000 nM. Besides, the EC50 in [3] was determined as 6.6 nM; in series [4], 12.7 nM; in series [5] it was 1.3 nM; in series [6], 1.9 nM; in [7], 2.5 nM.

For `C=C(C)[C@@H]1CC[C@]2(NCCN3CCS(=O)(=O)CC3)CC[C@]3(C)[C@H](CC[C@@H]4[C@@]5(C)CC=C(C6=CC7(C6)CC(C(=O)O)C7)C(C)(C)[C@@H]5CC[C@]43C)[C@@H]12` (stereo partly specified), the exposure (AUC) in series [1] was found to be 11.7 µM·h. The CC50 in series [2] was determined as 10700 nM. The EC50 was found to be 363 nM in [3], 5.8 nM in series [5] and 48.5 nM in series [7].

As to `C=C(C)[C@@H]1CC[C@]2(NCCN3CCC(S(C)(=O)=O)CC3)CC[C@]3(C)[C@H](CC[C@@H]4[C@@]5(C)CC=C(C6=CCC(CCO)(C(=O)O)CC6)C(C)(C)[C@@H]5CC[C@]43C)[C@@H]12` (stereo partly specified), in [1], the AUC was 0.591 µM·h. The CC50 in [2] was found to be 4900 nM. The EC50 worked out at 10.1 nM in series [3]; 154 nM in [4]; 3.7 nM in series [5]; 3 nM in [6]; 2.2 nM in series [7].
